{"source": "PubChem BioAssay AID1963982", "about": "(Molecular Pharmacology Branch, DTP, NCI, 2024)", "test_system": "313798-341-R-J2-PDC spheroids, viability", "test": "Anticancer human tumor 313798-341-R-J2-PDC patient-derived cervical squamous cell carcinoma cell line growth inhibition [PI3K]", "details": "spheroids with HUVEC and MSC; for IC50: curve of first compound; for viability, T/C: stronger effect = lower value", "how_it_was_run": "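Targeted small molecules plus PI3K inhibitors, half-log dose series from Cmax (default top 10 microM), were applied to heterotypic spheroids of cancer cells with HUVEC and MSCs. Viability indicated growth inhibition.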", "key": {"[1]": {"details": "second compound 0.00316 µM, first compound 0.0316 µM"}, "[2]": {"details": "second compound 0.00316 µM, first compound 0.1 µM"}, "[3]": {"details": "second compound 0.00316 µM, first compound 0.316 µM"}, "[4]": {"details": "second compound 0.00316 µM, first compound 1 µM"}, "[5]": {"details": "second compound 0.00316 µM, first compound 3.16 µM"}, "[6]": {"details": "second compound 0.00316 µM, first compound 10 µM"}, "[7]": {"details": "second compound 0.01 µM, first compound 0.0316 µM"}, "[8]": {"details": "second compound 0.01 µM, first compound 0.1 µM"}, "[9]": {"details": "second compound 0.01 µM, first compound 0.316 µM"}, "[10]": {"details": "second compound 0.01 µM, first compound 1 µM"}, "[11]": {"details": "second compound 0.01 µM, first compound 3.16 µM"}, "[12]": {"details": "second compound 0.01 µM, first compound 10 µM"}, "[13]": {"details": "second compound 0.0316 µM, first compound 0.0316 µM"}, "[14]": {"details": "second compound 0.0316 µM, first compound 0.1 µM"}, "[15]": {"details": "second compound 0.0316 µM, first compound 0.316 µM"}, "[16]": {"details": "second compound 0.0316 µM, first compound 1 µM"}, "[17]": {"details": "second compound 0.0316 µM, first compound 3.16 µM"}, "[18]": {"details": "second compound 0.0316 µM, first compound 10 µM"}, "[19]": {"details": "second compound 0.1 µM, first compound 0.0316 µM"}, "[20]": {"details": "second compound 0.1 µM, first compound 0.1 µM"}, "[21]": {"details": "second compound 0.1 µM, first compound 0.316 µM"}, "[22]": {"details": "second compound 0.1 µM, first compound 1 µM"}, "[23]": {"details": "second compound 0.1 µM, first compound 3.16 µM"}, "[24]": {"details": "second compound 0.1 µM, first compound 10 µM"}, "[25]": {"details": "second compound 0.316 µM, first compound 0.0316 µM"}, "[26]": {"details": "second compound 0.316 µM, first compound 0.1 µM"}, "[27]": {"details": "second compound 0.316 µM, first compound 0.316 µM"}, "[28]": {"details": "second compound 0.316 µM, first compound 1 µM"}, "[29]": {"details": "second compound 0.316 µM, first compound 3.16 µM"}, "[30]": {"details": "second compound 0.316 µM, first compound 10 µM"}, "[31]": {"details": "second compound 1 µM, first compound 0.0316 µM"}, "[32]": {"details": "second compound 1 µM, first compound 0.1 µM"}, "[33]": {"details": "second compound 1 µM, first compound 0.316 µM"}, "[34]": {"details": "second compound 1 µM, first compound 1 µM"}, "[35]": {"details": "second compound 1 µM, first compound 3.16 µM"}, "[36]": {"details": "second compound 1 µM, first compound 10 µM"}}, "data": [{"compound": "Cn1ncc(Cl)c1-c1cc(C(=O)NC(CN)Cc2cccc(F)c2)sc1Cl", "note": "(centres undefined) + COc1c(OCCCN2CCOCC2)ccc2c3n(c(=NC(=O)c4cnc(N)nc4)nc12)CCN3;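 further: spheroids exposed to compounds for seven days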;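 on viability, T/C: 100% = DMSO vehicle control viability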", "values": [{"measurement": "IC50", "setting": "second compound 0.00316 µM", "value": 0.93, "unit": "µM"}, {"measurement": "IC50", "setting": "second compound 0.01 µM", "value": 0.678, "unit": "µM"}, {"measurement": "IC50", "setting": "second compound 0.0316 µM", "value": 0.28, "unit": "µM"}, {"measurement": "IC50", "setting": "second compound 0.1 µM", "value": "< 0.0316", "unit": "µM"}, {"measurement": "IC50", "setting": "second compound 0.316 µM", "value": "< 0.0316", "unit": "µM"}, {"measurement": "IC50", "setting": "second compound 1 µM", "value": "< 0.0316", "unit": "µM"}, {"measurement": "viability, T/C", "setting": "[1]", "value": 107, "unit": "%"}, {"measurement": "viability, T/C", "setting": "[2]", "value": 84.7, "unit": "%"}, {"measurement": "viability, T/C", "setting": "[3]", "value": 71, "unit": "%"}, {"measurement": "viability, T/C", "setting": "[4]", "value": 46.7, "unit": "%"}, {"measurement": "viability, T/C", "setting": "[5]", "value": 36.6, "unit": "%"}, {"measurement": "viability, T/C", "setting": "[6]", "value": 35.5, "unit": "%"}, {"measurement": "viability, T/C", "setting": "[7]", "value": 100, "unit": "%"}, {"measurement": "viability, T/C", "setting": "[8]", "value": 99, "unit": "%"}, {"measurement": "viability, T/C", "setting": "[9]", "value": 69.2, "unit": "%"}, {"measurement": "viability, T/C", "setting": "[10]", "value": 41.6, "unit": "%"}, {"measurement": "viability, T/C", "setting": "[11]", "value": 30.8, "unit": "%"}, {"measurement": "viability, T/C", "setting": "[12]", "value": 36.8, "unit": "%"}, {"measurement": "viability, T/C", "setting": "[13]", "value": 99.3, "unit": "%"}, {"measurement": "viability, T/C", "setting": "[14]", "value": 61.9, "unit": "%"}, {"measurement": "viability, T/C", "setting": "[15]", "value": 53.7, "unit": "%"}, {"measurement": "viability, T/C", "setting": "[16]", "value": 36.4, "unit": "%"}, {"measurement": "viability, T/C", "setting": "[17]", "value": 25.2, "unit": "%"}, {"measurement": "viability, T/C", "setting": "[18]", "value": 25.5, "unit": "%"}, {"measurement": "viability, T/C", "setting": "[19]", "value": 49.4, "unit": "%"}, {"measurement": "viability, T/C", "setting": "[20]", "value": 43.5, "unit": "%"}, {"measurement": "viability, T/C", "setting": "[21]", "value": 41.4, "unit": "%"}, {"measurement": "viability, T/C", "setting": "[22]", "value": 27.1, "unit": "%"}, {"measurement": "viability, T/C", "setting": "[23]", "value": 20.2, "unit": "%"}, {"measurement": "viability, T/C", "setting": "[24]", "value": 15.4, "unit": "%"}, {"measurement": "viability, T/C", "setting": "[25]", "value": 17.5, "unit": "%"}, {"measurement": "viability, T/C", "setting": "[26]", "value": 18.1, "unit": "%"}, {"measurement": "viability, T/C", "setting": "[27]", "value": 15.2, "unit": "%"}, {"measurement": "viability, T/C", "setting": "[28]", "value": 16.6, "unit": "%"}, {"measurement": "viability, T/C", "setting": "[29]", "value": 13, "unit": "%"}, {"measurement": "viability, T/C", "setting": "[30]", "value": 5.97, "unit": "%"}, {"measurement": "viability, T/C", "setting": "[31]", "value": 12.7, "unit": "%"}, {"measurement": "viability, T/C", "setting": "[32]", "value": 12.4, "unit": "%"}, {"measurement": "viability, T/C", "setting": "[33]", "value": 13.6, "unit": "%"}, {"measurement": "viability, T/C", "setting": "[34]", "value": 12.3, "unit": "%"}, {"measurement": "viability, T/C", "setting": "[35]", "value": 9.74, "unit": "%"}, {"measurement": "viability, T/C", "setting": "[36]", "value": 3.3, "unit": "%"}]}, {"compound": "CC1(C)CCC(Nc2ncc(C(F)(F)F)c(-c3c[nH]c4c(P(C)(C)=O)c(C#N)ccc34)n2)CN1", "note": "(centres undefined) + COc1c(OCCCN2CCOCC2)ccc2c3n(c(=NC(=O)c4cnc(N)nc4)nc12)CCN3", "values": [{"measurement": "IC50", "setting": "second compound 0.00316 µM", "value": "< 0.0316", "unit": "µM"}, {"measurement": "IC50", "setting": "second compound 0.01 µM", "value": "< 0.0316", "unit": "µM"}, {"measurement": "IC50", "setting": "second compound 0.0316 µM", "value": "< 0.0316", "unit": "µM"}, {"measurement": "IC50", "setting": "second compound 0.1 µM", "value": "< 0.0316", "unit": "µM"}, {"measurement": "IC50", "setting": "second compound 0.316 µM", "value": "< 0.0316", "unit": "µM"}, {"measurement": "IC50", "setting": "second compound 1 µM", "value": "< 0.0316", "unit": "µM"}, {"measurement": "viability, T/C", "setting": "[1]", "value": 44.6, "unit": "%"}, {"measurement": "viability, T/C", "setting": "[2]", "value": 42.3, "unit": "%"}, {"measurement": "viability, T/C", "setting": "[3]", "value": 39.7, "unit": "%"}, {"measurement": "viability, T/C", "setting": "[4]", "value": 43.9, "unit": "%"}, {"measurement": "viability, T/C", "setting": "[5]", "value": 45.4, "unit": "%"}, {"measurement": "viability, T/C", "setting": "[6]", "value": 33.7, "unit": "%"}, {"measurement": "viability, T/C", "setting": "[7]", "value": 39.6, "unit": "%"}, {"measurement": "viability, T/C", "setting": "[8]", "value": 34.7, "unit": "%"}, {"measurement": "viability, T/C", "setting": "[9]", "value": 36.8, "unit": "%"}, {"measurement": "viability, T/C", "setting": "[10]", "value": 38.1, "unit": "%"}, {"measurement": "viability, T/C", "setting": "[11]", "value": 43.1, "unit": "%"}, {"measurement": "viability, T/C", "setting": "[12]", "value": 29.1, "unit": "%"}, {"measurement": "viability, T/C", "setting": "[13]", "value": 27.4, "unit": "%"}, {"measurement": "viability, T/C", "setting": "[14]", "value": 27.9, "unit": "%"}, {"measurement": "viability, T/C", "setting": "[15]", "value": 27.4, "unit": "%"}, {"measurement": "viability, T/C", "setting": "[16]", "value": 27.9, "unit": "%"}, {"measurement": "viability, T/C", "setting": "[17]", "value": 26.5, "unit": "%"}, {"measurement": "viability, T/C", "setting": "[18]", "value": 16.5, "unit": "%"}, {"measurement": "viability, T/C", "setting": "[19]", "value": 18.9, "unit": "%"}, {"measurement": "viability, T/C", "setting": "[20]", "value": 21.1, "unit": "%"}, {"measurement": "viability, T/C", "setting": "[21]", "value": 20, "unit": "%"}, {"measurement": "viability, T/C", "setting": "[22]", "value": 20.2, "unit": "%"}, {"measurement": "viability, T/C", "setting": "[23]", "value": 21.5, "unit": "%"}, {"measurement": "viability, T/C", "setting": "[24]", "value": 3.93, "unit": "%"}, {"measurement": "viability, T/C", "setting": "[25]", "value": 12.2, "unit": "%"}, {"measurement": "viability, T/C", "setting": "[26]", "value": 11.7, "unit": "%"}, {"measurement": "viability, T/C", "setting": "[27]", "value": 12.2, "unit": "%"}, {"measurement": "viability, T/C", "setting": "[28]", "value": 12, "unit": "%"}, {"measurement": "viability, T/C", "setting": "[29]", "value": 8.87, "unit": "%"}, {"measurement": "viability, T/C", "setting": "[30]", "value": 1.12, "unit": "%"}, {"measurement": "viability, T/C", "setting": "[31]", "value": 9.94, "unit": "%"}, {"measurement": "viability, T/C", "setting": "[32]", "value": 9.34, "unit": "%"}, {"measurement": "viability, T/C", "setting": "[33]", "value": 7.8, "unit": "%"}, {"measurement": "viability, T/C", "setting": "[34]", "value": 7.89, "unit": "%"}, {"measurement": "viability, T/C", "setting": "[35]", "value": 5.87, "unit": "%"}, {"measurement": "viability, T/C", "setting": "[36]", "value": 1.15, "unit": "%"}]}]}
